Laboratory results: PubChem BioAssay (NCI)
Values joined by “and” are separate entries in the source; they are usually repeats but may differ in a detail not shown here. Equal values may be shown once.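 Test compounds were applied to cells in 96-well plates for 48 hours at 5 doses. The concentration for 50% growth inhibition is given as GI50. TGI denotes the concentration required for complete inhibition of growth.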

How the values were obtained:
Experiment in all cases: NCI tumour cell line growth inhibition, 48 h
HOP-62 NSCLC = test system: HOP-62 NSCLC
K-562 leukemia = test system: K-562 leukemia
COLO 205 colon = test system: COLO 205 colon
T-47D breast = test system: T-47D breast
PC-3 prostate = test system: PC-3 prostate
HCT-116 colon = test system: HCT-116 colon
NCI-H23 lung = test system: NCI-H23 lung
SK-MEL-5 melanoma = test system: SK-MEL-5 melanoma
OVCAR-3 ovarian = test system: OVCAR-3 ovarian
HL-60(TB) leukemia = test system: HL-60(TB) leukemia

| SMILES | TGI (HOP-62 NSCLC) | TGI (K-562 leukemia) | TGI (COLO 205 colon) | TGI (T-47D breast) | TGI (PC-3 prostate) | TGI (HCT-116 colon) | TGI (NCI-H23 lung) | TGI (SK-MEL-5 melanoma) | TGI (OVCAR-3 ovarian) | TGI (HL-60(TB) leukemia) | GI50 (HOP-62 NSCLC) | GI50 (K-562 leukemia) | GI50 (COLO 205 colon) | GI50 (T-47D breast) | GI50 (PC-3 prostate) | GI50 (HCT-116 colon) | GI50 (NCI-H23 lung) | GI50 (SK-MEL-5 melanoma) | GI50 (OVCAR-3 ovarian) | GI50 (HL-60(TB) leukemia) |
| --- | --- | --- | --- | --- | --- | --- | --- | --- | --- | --- | --- | --- | --- | --- | --- | --- | --- | --- | --- | --- |
| Cn1c(=O)c2[nH]c(SCc3ccccn3)nc2n(C)c1=S | > 100 µM | > 100 µM | > 100 µM | > 100 µM | > 100 µM | > 100 µM | > 100 µM | > 100 µM | > 100 µM | > 100 µM | – | – | – | – | – | – | – | – | – | – |
| CC/C(=C(/c1ccc(O)cc1)c1ccc(OCCNC)cc1)c1ccccc1 | 4.44 µM | 4.41 µM | 3.59 µM | 4.68 µM | 5.45 µM | 3.12 µM | 7.25 µM | 3.09 µM | 4.52 µM | 4.55 µM | 2.03 µM | 1.86 µM | 1.97 µM | 1.34 µM | 1.95 µM | 1.68 µM | 2.6 µM | 1.67 µM | 2.1 µM | 2.03 µM |
| COc1ccc(-c2cnnc3c(-c4cccc(C(F)(F)F)c4)cnn23)cc1 | 13.1 µM | > 100 µM | > 100 µM | > 100 µM | > 100 µM | > 100 µM | > 100 µM | > 100 µM | 6.45 µM | > 100 µM | 2.72 µM | > 100 µM | > 100 µM | 6.37 µM | 6.22 µM | 3.46 µM | 4.26 µM | 3.85 µM | 2.55 µM | > 100 µM |
| COc1cc2c(c(O)c1Br)C(=O)c1c(O)cc(C[C@H](C)O)cc1[C@H]2[C@H]1c2cc(C[C@H](C)O)cc(O)c2C(=O)c2c1cc(OC)c(Br)c2O | 63.1 µM and 96 µM | 67.5 µM and > 100 µM | 9.21 µM and 24.9 µM | 13.2 µM and 23.4 µM | 67.5 µM and > 100 µM | 67.5 µM and 63.1 µM | 42.1 µM and 39.3 µM | 16 µM and 28.5 µM | 67.5 µM and > 100 µM | 28 µM and 48.5 µM | 6.76 µM and 19.1 µM | 2.74 µM and 6.22 µM | 2.32 µM and 6.74 µM | 2.04 µM and 4.09 µM | 2.85 µM and 4.4 µM | 3.77 µM and 5.49 µM | 5.85 µM and 4.83 µM | 7.44 µM and 15 µM | 15.3 µM and 31.1 µM | 3.28 µM and 17.4 µM |
| O/N=C/C1c2ccccc2-c2ccccc21 | 34.2 µM | 67.3 µM | 30.7 µM | 56.3 µM | 36.9 µM | 32.8 µM | 37.6 µM | 25.4 µM | 34.1 µM | 93.7 µM | – | – | – | – | – | – | – | – | – | – |
| COc1ccc(NC2=CC(=O)C(=O)c3ccccc32)nn1 | – | 1.31 µM | 3.21 µM | 11.9 µM | 38.9 µM | – | 6.2 µM | 2 µM | 5.94 µM | 0.898 µM | – | – | – | – | – | – | – | – | – | – |
| O=c1[nH]ncc(Br)c1Br | 18.1 µM | – | 3.32 µM | 6.07 µM | 20.8 µM | 3.42 µM | 3.54 µM | 15.9 µM | 3.18 µM | 4.27 µM | 5.65 µM | – | 1.91 µM | 2.12 µM | 5.45 µM | 1.8 µM | 1.92 µM | 4.38 µM | 1.75 µM | 2.22 µM |
